# According to patent US20240376100A1 (Redona Therapeutics, Inc., priority 2021, published 2024):
# Counter-ions that a name gives are not always drawn.
# Biological target: PAPD5 enzyme (Homo sapiens, UniProt Q8NDF8)
# Experiment: PAPD5 assay (AMP incorporation onto 3'-terminus of RNA substrate, fluorescence quench)
# Format: biochemical
# Settings: PAPD5 protein 0.3 nM, ATP 50 μM, 30 minutes preincubation, room temperature; read-out: Potency PAPD5 IC50
# Procedure: The purpose of the PAPD5 assay is to determine compound potency against PAPD5 enzyme through the measurement of IC50. Compound inhibition is measured as a function of AMP incorporation onto the 3′-terminus of an RNA substrate in the presence of active PAPD5, ATP, and inhibitor. The PAPD5 assay was done in a black, non-binding, 384 well plate (Corning #3575). All steps were performed at room temperature. For a typical assay, a 40 ul aliquot of assay buffer (50 mM HEPES pH 7.3, 20 mM KCl, 10 mM MgCl2, 10 mMM DTT, 0.01% Triton X-100, 40 U/ml RNAsin (Promega)) containing PAPD5 protein (final 10 concentration: 0.3 nM) and ATP (final concentration 50 μM) was added to each well. Next, 1 ul of compound in 100% DMSO is transferred from a compound dilution plate in which the compound is serially diluted. The plate was placed on a plate shaker for 30 seconds to produce mixing, then incubated for 30 minutes. Next, 10 ul of a 5× mix of RNA substrate (5′-fluorescein-AUAGAG-3′ (IDT)) and a DNA oligonucleotide that is complementary to the AMP modified RNA product (5′-TCTCTATT-3′-TAMRA, wherein the first two nucleotides are locked nucleic acids (IDT)) was added (final concentrations: 5 nM and 20 nM, respectively). The plate was placed on a plate shaker for 30 seconds to produce mixing then immediately placed in a Biotek Cytation 5 plate reader, and the time-dependent decrease in fluorescein fluorescence resulting from annealing of the TAMRA labeled quenching probe was recorded, using the kinetics mode of the reader (typical run time is 90 minutes). Reaction rates were obtained using linear fits to the early portion of progress curves. IC50 values were calculated using a four-parameter fit with 100% enzyme activity determined from the DMSO control and 0% activity from control samples lacking UTP.
# “+” represents an IC50 value that is greater than 50 PM; “++” represents an IC50 value that is greater than 10 μM and equal to or less than 50 μM; “+++” represents an IC50 value that is greater than 1 μM and equal to or less than 10 μM; and “++++” represents an IC50 value that is equal to or less than 1 μM.
# PAPD5 enzyme, sequence (Q8NDF8 whole entry): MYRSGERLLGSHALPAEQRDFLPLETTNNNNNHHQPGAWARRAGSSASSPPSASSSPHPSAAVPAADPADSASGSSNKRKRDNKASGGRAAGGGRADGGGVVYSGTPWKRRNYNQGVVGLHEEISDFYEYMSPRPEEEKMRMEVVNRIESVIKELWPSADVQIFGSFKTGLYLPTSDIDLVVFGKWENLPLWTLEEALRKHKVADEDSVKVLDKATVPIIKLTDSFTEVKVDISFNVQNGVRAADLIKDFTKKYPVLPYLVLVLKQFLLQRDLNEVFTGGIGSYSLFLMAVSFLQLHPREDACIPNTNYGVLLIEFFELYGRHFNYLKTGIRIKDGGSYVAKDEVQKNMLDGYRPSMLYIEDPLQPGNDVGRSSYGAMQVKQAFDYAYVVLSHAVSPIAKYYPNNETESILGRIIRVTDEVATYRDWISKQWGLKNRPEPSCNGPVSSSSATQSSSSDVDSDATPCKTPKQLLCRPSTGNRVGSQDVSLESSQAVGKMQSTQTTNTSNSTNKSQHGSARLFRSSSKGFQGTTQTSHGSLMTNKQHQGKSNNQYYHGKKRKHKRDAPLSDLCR
row,SMILES,IC50 [nM]
1,"O=C(O)c1cn(-c2cnccn2)c2nc(N3Cc4cccnc4C3)c(Cl)cc2c1=O [Example 2, 6-chloro-4-oxo-1-(pyrazin-2-yl)-7{5H,6H,7H pyrrolo[3,4-b]pyridin-6-yl}-1,4-dihydro-1,8-naphthyridine-3-carboxylic acid]",≤ 1000
2,"O=C(O)c1cn(-c2ccc(O)c(F)c2)c2cc(N3Cc4cccnc4C3)c(Cl)cc2c1=O [Example 3, 6-chloro-1-(3-fluoro-4-hydroxyphenyl)-4-oxo-7-{5H,6H,7H-pyrrolo[3,4-b]pyridin-6-yl}-1,4-dihydroquinoline-3-carboxylic acid]",≤ 1000
3,"Cc1cc(NC(=O)OC(C)(C)C)ncc1-n1cc(C(=O)O)c(=O)c2cc(Cl)c(N3Cc4cccnc4C3)cc21 [Example 4, 1-(6-{[(tert-butoxy)carbonyl]amino}-4-methylpyridin-3-yl)-6-chloro-4-oxo-7-{5H,6H,7H-pyrrolo[3,4-b]pyridin-6-yl}-1,4-dihydroquinoline-3-carboxylic acid]",≤ 1000
4,"Cc1cc(N)ncc1-n1cc(C(=O)O)c(=O)c2cc(Cl)c(N3Cc4cccnc4C3)cc21 [Example 5, 1-(6-amino-4-methylpyridin-3-yl)-6-chloro-4-oxo-7-{5H,6H,7H-pyrrolo[3,4-b]pyridin-6-yl}-1,4-dihydroquinoline-3-carboxylicacid hydrochloride]",≤ 1000
5,"O=C(O)c1cn(CC2CCC2)c2nc(N3Cc4cccnc4C3)c(Cl)cc2c1=O [Example 6, 6-chloro-1-(cyclobutylmethyl)-4-oxo-7-{5H,6H,7H-pyrrolo[3,4-b]pyridin-6-yl}-1,4-dihydro-1,8-naphthyridine-3-carboxylic acid]",≤ 1000
6,"N#Cc1cc2c(=O)c(C(=O)O)cn(CC3CCC3)c2nc1N1Cc2cccnc2C1 [Example 7, 6-cyano-1-(cyclobutylmethyl)-4-oxo-7-{5H,6H,7H-pyrrolo[3,4-b]pyridin-6-yl}-1,4-dihydro-1,8-naphthyridine-3-carboxylic acid]",≤ 1000
7,"O=C(O)c1cn(-c2ccc(O)cc2F)c2cc(-n3ncc4cccc(Br)c43)c(F)cc2c1=O [Example 9, 7-(7-bromo-1H-indazol-1-yl)-6-fluoro-1-(2-fluoro-4-hydroxyphenyl)-4-oxo-1,4-dihydroquinoline-3-carboxylic acid]",≤ 1000
8,"O=C(O)c1cn(-c2ccc(O)cc2F)c2cc(-n3ncc4cc(Cl)cc(Cl)c43)c(F)cc2c1=O [Example 10, 7-(5,7-dichloro-1H-indazol-1-yl)-6-fluoro-1-(2-fluoro-4-hydroxyphenyl)-4-oxo-1,4-dihydroquinoline-3-carboxylic acid]",≤ 1000
9,"Cc1nn(-c2cc3c(cc2F)c(=O)c(C(=O)O)cn3-c2ccc(O)cc2F)cc1Br [Example 11, 7-(4-bromo-3-methyl-1H-pyrazol-1-yl)-6-fluoro-1-(2-fluoro-4-hydroxyphenyl)-4-oxo-1,4-dihydroquinoline-3-carboxylic acid]",≤ 1000
10,"O=C(O)c1cn(-c2ccc(O)cc2F)c2cc(-n3ccc(Cl)n3)c(F)cc2c1=O [Example 12, 7-(3-chloro-1H-pyrazol-1-yl)-6-fluoro-1-(2-fluoro-4-hydroxyphenyl)-4-oxo-1,4-dihydroquinoline-3-carboxylic acid]",≤ 1000
11,"COc1ccc2c(c1)CN(c1cc3c(cc1F)c(=O)c(C(=O)O)cn3-c1ccc(O)cc1F)C2 [Example 14, 6-fluoro-1-(2-fluoro-4-hydroxyphenyl)-7-(5-methoxyisoindolin-2-yl)-4-oxo-1,4-dihydroquinoline-3-carboxylic acid]",≤ 1000
12,"O=C(O)c1cn(-c2ccc(O)cc2F)c2cc(N3Cc4cccc(F)c4C3)c(F)cc2c1=O [Example 15, 6-fluoro-1-(2-fluoro-4-hydroxyphenyl)-7-(4-fluoroisoindolin-2-yl)-4-oxo-1,4-dihydroquinoline-3-carboxylic acid]",≤ 1000
13,"O=C(O)c1cn(-c2ccc(O)cc2)c2cc(N3Cc4cccnc4C3)c(Cl)cc2c1=O [Example 16, 6-chloro-7-(5,7-dihydro-6H-pyrrolo[3,4-b]pyridin-6-yl)-1-(4-hydroxyphenyl)-4-oxo-1,4-dihydroquinoline-3-carboxylic acid]",≤ 1000
14,"O=C(O)c1cn(-c2ccc(CO)cc2F)c2cc(N3Cc4cccnc4C3)c(Cl)cc2c1=O [Example 17, 6-chloro-7-(5,7-dihydro-6H-pyrrolo[3,4-b]pyridin-6-yl)-1-(2-fluoro-4-(hydroxymethyl)phenyl)-4-oxo-1,4-dihydroquinoline-3-carboxylic acid]",≤ 1000
15,"O=C(O)c1cn(-c2ccc(O)cc2)c2cc(N3Cc4cccnc4C3)c(F)cc2c1=O [Example 18, 7-(5,7-dihydro-6H-pyrrolo[3,4-b]pyridin-6-yl)-6-fluoro-1-(4-hydroxyphenyl)-4-oxo-1,4-dihydroquinoline-3-carboxylic acid]",≤ 1000
16,"O=C(O)c1cn(-c2ccc(O)cc2)c2cc(N3Cc4ccncc4C3)c(F)cc2c1=O [Example 19, 7-(1,3-dihydro-2H-pyrrolo[3,4-c]pyridin-2-yl)-6-fluoro-1-(4-hydroxyphenyl)-4-oxo-1,4-dihydroquinoline-3-carboxylic acid]",≤ 1000
17,"O=C(O)c1cn(-c2cnccn2)c2cc(N3Cc4ccccc4C3)c(Cl)cc2c1=O [Example 21, 6-chloro-7-(isoindolin-2-yl)-4-oxo-1-(pyrazin-2-yl)-1,4-dihydroquinoline-3-carboxylic acid]",≤ 1000
18,"CN(C)C1CN(c2ccc(-n3cc(C(=O)O)c(=O)c4cc(Cl)c(N5Cc6cccnc6C5)nc43)cn2)C1 [Example 22, 6-chloro-7-(5,7-dihydro-6H-pyrrolo[3,4-b]pyridin-6-yl)-1-(6-(3-(dimethylamino)azetidin-1-yl)pyridin-3-yl)-4-oxo-1,4-dihydro-1,8-naphthyridine-3-carboxylic acid]",≤ 1000
19,"Nc1ncc(-n2cc(C(=O)O)c(=O)c3cc(Cl)c(N4Cc5cccnc5C4)cc32)cc1F [Example 23, 1-(6-amino-5-fluoropyridin-3-yl)-6-chloro-7-(5,7-dihydro-6H-pyrrolo-[3,4-b]pyridin-6-yl)-4-oxo-1,4-dihydroquinoline-3-carboxylic acid]",≤ 1000
20,"Cc1nc(N)ccc1-n1cc(C(=O)O)c(=O)c2cc(Cl)c(N3Cc4cccnc4C3)cc21 [Example 24, 1-(6-amino-2-methylpyridin-3-yl)-6-chloro-7-(5,7-dihydro-6H-pyrrolo[3,4-b]pyridin-6-yl)-4-oxo-1,4-dihydroquinoline-3-carboxylic acid]",≤ 1000
21,"Cc1cc(N2CC(N(C)C)C2)ncc1-n1cc(C(=O)O)c(=O)c2cc(Cl)c(N3Cc4cccnc4C3)cc21 [Example 25, 6-chloro-7-(5,7-dihydro-6H-pyrrolo[3,4-b]pyridin-6-yl)-1-(6-(3-(dimethylamino)azetidin-1-yl)-4-methylpyridin-3-yl)-4-oxo-1,4-dihydroquinoline-3-carboxylic acid]",≤ 1000
22,"O=C(O)c1cn(-c2ccc(O)cc2F)c2cc(N3Cc4cccnc4C3)c(Cl)cc2c1=O [Example 27, 6-chloro-7-(5,7-dihydro-6H-pyrrolo[3,4-b]pyridin-6-yl)-1-(2-fluoro-4-hydroxyphenyl)-4-oxo-1,4-dihydroquinoline-3-carboxylic acid]",≤ 1000
23,"O=C(O)c1cn(-c2ccc(O)c(F)c2)c2cc(N3Cc4cccnc4C3)c(F)cc2c1=O [Example 28, 7-(5,7-dihydro-6H-pyrrolo[3,4-b]pyridin-6-yl)-6-fluoro-1-(3-fluoro-4-hydroxyphenyl)-4-oxo-1,4-dihydroquinoline-3-carboxylic acid]",≤ 1000
